Measurements reported in patent publication US20250145589A1, “PYRIDINE DERIVATIVE AND USE THEREOF” (SICHUAN HUIYU PHARMACEUTICAL CO., LTD., priority 2021, published 2025).
Where two headings read alike, the source gives them in different places.

What was measured:
PI3Kα = PI3Kα (Homo sapiens (Human), UniProt P42336); assay: Inhibition of PI3Kα efficacy assay (ADP-Glo kinase assay); assay type: biochemical; conditions: read-out: PI3Kα inhibitory activity (IC50)
Protocol: Inhibition of PI3Kα Efficacy assay The ADP-Glo™ kinase assay was used to assess the inhibition of PI3Kα with our compounds. The utilized proteins and assay reagents were obtained from the ADP-Glo™ Kinase Assay Kit (Promega). Initially, a 2 mM stock solution of the test compound (dissolved in DMSO) was serially diluted in five-fold concentrations using DMSO to obtain eight working solutions 1 (200′). […] Subsequently, 2 μL of 2.5×PI and ATP solution mixture were added to each well, mixed, and incubated at RT for 60 minutes. Then, 5 μL of ADP-Glo (containing 10 mM MgCl2) reagent was added to each well, mixed, and incubated at RT for 40 minutes. Finally, 10 μL of the Kinase Detection Reagent was added to each well, mixed, and incubated at RT for 40 minutes. […] Data were analyzed using GraphPad Prism with log(inhibitor) vs. response—Variable Slope(four parameters) fitting calculations for […]. (Note: The negative control refers to the group without inhibitor, and the blank control refers to the group without enzyme.) The data were presented in Tables 1 to 4.

[1] = system: NCI-H358 cells (KRAS G12C mutant); assay: NCI-H358 cell proliferation inhibition (CellTiter-Glo); assay type: cell-based; conditions: Homo sapiens, NCI-H358, 72 h
Protocol: The CellTiter-Glo®, assay was used to detect the number of viable cells, in order to evaluate the anti-proliferation efficacy of compounds. […] The compounds were serially diluted 5-fold in DMSO to obtain 8 concentrations, and then further diluted with RPMI-640 (10% FBS) cell culture medium to obtain the working solutions (5′), 20 μL of each working solution was added to the cell culture supernatant in each well, and the plate was further incubated for 3 days at 37° C. with 5% CO2. The plate was then equilibrated with CellTiter-Glo® reagent at room temperature (25° C.) for 10-30 minutes. After aspirating 50 μL of the medium, 50 μL of CellTiter-Glo® reagent was added. The cells were thoroughly mixed with the CellTiter-Glo® reagent using a microplate shaker for 2 minutes, and then incubated at room temperature for 10 minutes. The 96-well plate was placed in a multi-mode microplate reader to record the luminescence values (RLU). The inhibition rate was calculated through the following equation: [formula] Data were analyzed using GraphPad Prism for IC50 values (Note: The negative control refers to the group without inhibitor).

PI3Kδ = PI3Kδ (Homo sapiens (Human), UniProt O00329); assay: Inhibition of PI3Kδ efficacy assay (ADP-Glo kinase assay); assay type: biochemical; conditions: read-out: PI3Kδ inhibitory activity (IC50)
Protocol: Test Example 2: Inhibition of PI3Kδ Efficacy assay The ADP-Glo™ kinase assay was used to assess the inhibition of PI3Kδ with our compounds. The utilized proteins and assay reagents were obtained from the ADP-Glo™ Kinase Assay Kit (Promega). Initially, a 2 mM stock solution of the test compound (dissolved in DMSO) was serially diluted in five-fold concentrations using DMSO to obtain eight working solutions 1 (200×) Subsequently, each of the eight working solutions 1 was further diluted in a 20-fold gradient by adding 5 μL into 95 μL of ddH2O, resulting in eight working solutions 2 (10×). […] Subsequently, 2 μL of 2.5×PI and ATP solution mixture were added to each well, mixed, and incubated at RT for 60 minutes. Then, 5 μL of ADP-Glo (containing 10 mM MgCl2) reagent was added to each well, mixed, and incubated at RT for 40 minutes. Finally, 10 μL of the Kinase Detection Reagent was added to each well, mixed, and incubated at RT for 40 minutes. Luminescence values were recorded using a multi-mode microplate reader with luminescence channel settings, and the inhibitory rate was calculated using the following formula: [formula] Data were analyzed using GraphPad Prism with log(inhibitor) vs. response—Variable Slope(four parameters) fitting calculations for IC50 values.

[2] = H358 cells (G12C mutation), 3 days, Table 6, read-out: NCI-H358 (IC50)

PI3Kα, sequence (P42336 whole entry): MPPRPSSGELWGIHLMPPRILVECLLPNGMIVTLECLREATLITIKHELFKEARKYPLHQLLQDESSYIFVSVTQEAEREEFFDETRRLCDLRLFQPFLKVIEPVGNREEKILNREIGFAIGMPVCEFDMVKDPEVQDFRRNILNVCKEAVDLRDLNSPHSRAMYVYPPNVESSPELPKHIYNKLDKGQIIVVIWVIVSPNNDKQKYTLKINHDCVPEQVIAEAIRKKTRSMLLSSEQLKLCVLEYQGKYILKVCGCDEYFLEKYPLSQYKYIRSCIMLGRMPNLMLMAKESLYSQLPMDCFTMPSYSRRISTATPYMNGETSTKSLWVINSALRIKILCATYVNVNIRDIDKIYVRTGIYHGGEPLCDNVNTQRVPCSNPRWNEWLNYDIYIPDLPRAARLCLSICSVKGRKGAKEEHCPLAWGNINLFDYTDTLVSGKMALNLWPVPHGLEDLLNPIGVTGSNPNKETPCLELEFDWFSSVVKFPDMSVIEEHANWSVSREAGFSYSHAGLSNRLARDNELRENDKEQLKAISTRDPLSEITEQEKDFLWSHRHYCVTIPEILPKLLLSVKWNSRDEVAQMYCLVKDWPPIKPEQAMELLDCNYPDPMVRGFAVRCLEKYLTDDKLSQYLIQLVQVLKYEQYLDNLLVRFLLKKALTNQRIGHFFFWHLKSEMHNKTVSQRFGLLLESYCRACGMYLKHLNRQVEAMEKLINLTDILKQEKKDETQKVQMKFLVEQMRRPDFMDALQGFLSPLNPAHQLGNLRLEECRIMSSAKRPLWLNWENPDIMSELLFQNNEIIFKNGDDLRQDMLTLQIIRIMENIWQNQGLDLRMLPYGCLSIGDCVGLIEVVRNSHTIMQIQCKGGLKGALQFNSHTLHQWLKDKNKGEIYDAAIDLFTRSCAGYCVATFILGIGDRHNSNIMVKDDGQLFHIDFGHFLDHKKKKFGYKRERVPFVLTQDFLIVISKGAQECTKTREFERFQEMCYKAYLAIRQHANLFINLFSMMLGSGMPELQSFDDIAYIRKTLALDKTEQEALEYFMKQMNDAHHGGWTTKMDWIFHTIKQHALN
PI3Kα, sequence (P27986 whole entry partner): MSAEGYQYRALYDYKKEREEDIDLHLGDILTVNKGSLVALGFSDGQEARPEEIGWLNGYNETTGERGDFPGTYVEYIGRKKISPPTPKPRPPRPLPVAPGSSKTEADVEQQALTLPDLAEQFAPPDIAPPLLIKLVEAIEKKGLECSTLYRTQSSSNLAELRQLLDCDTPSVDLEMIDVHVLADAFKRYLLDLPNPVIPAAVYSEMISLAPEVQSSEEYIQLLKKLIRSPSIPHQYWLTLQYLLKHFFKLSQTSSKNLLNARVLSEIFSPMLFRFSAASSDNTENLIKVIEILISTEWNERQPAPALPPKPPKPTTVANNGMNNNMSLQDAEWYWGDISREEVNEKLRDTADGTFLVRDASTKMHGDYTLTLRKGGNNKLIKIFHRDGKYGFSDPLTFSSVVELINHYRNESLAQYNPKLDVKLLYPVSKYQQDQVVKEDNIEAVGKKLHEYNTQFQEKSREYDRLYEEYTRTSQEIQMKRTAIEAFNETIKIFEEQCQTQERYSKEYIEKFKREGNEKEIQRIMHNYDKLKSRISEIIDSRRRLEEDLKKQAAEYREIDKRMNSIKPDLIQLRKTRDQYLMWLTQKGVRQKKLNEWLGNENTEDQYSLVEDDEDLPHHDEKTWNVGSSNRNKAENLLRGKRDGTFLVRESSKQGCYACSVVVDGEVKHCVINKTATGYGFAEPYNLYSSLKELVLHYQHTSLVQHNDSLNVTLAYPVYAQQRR
PI3Kδ, sequence (O00329 whole entry): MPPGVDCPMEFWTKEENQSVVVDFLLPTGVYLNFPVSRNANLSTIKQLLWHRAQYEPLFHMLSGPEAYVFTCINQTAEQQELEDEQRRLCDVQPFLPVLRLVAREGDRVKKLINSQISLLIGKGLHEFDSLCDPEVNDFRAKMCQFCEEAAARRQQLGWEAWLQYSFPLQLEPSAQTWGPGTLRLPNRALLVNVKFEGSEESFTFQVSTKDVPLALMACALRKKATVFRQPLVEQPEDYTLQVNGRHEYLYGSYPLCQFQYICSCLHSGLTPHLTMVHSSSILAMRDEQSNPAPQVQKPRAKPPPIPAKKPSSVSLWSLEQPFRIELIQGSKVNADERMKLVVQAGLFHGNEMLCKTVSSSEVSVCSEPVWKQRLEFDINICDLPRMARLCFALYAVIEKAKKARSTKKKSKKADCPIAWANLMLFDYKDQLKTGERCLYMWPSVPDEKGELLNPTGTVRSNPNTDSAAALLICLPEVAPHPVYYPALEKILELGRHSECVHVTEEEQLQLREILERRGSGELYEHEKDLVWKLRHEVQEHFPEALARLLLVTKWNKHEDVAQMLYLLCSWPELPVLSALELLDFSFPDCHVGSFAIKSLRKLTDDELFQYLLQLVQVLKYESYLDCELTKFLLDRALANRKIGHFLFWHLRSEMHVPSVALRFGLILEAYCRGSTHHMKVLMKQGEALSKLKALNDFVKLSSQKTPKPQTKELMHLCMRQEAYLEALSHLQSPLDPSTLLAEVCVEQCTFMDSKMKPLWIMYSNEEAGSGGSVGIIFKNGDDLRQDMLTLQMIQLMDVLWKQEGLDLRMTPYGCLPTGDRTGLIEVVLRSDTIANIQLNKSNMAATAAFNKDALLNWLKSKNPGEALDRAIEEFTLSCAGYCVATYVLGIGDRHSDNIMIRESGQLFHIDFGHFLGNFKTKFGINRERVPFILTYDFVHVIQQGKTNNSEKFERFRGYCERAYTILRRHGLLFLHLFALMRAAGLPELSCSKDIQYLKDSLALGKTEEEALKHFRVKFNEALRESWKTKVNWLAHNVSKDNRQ
PI3Kδ, sequence (P27986 whole entry partner): as the sequence (P27986 whole entry partner) above

Row | IC50 (PI3Kα; Table 2) | IC50 [1, 2] | SMILES | IC50 (PI3Kα; Table 4) | further results
1 | 9.8 nM | 8.5 nM | C=C(F)C(=O)N1CCN(c2ncnc3ccc(-c4cnc(OC)c(NS(=O)(=O)c5c(F)cc(F)cc5F)c4)cc23)CC1 [Example 98, 2,4,6-trifluoro-N-(5-(4-(4-(2-fluoroacryloyl)piperazin-1-yl)quinazolin-6-yl)-2-methoxypyridin-3-yl)benzenesulfonamide] | – | –
2 | 2.8 nM | 213 nM | C=C(F)C(=O)N1CCN(c2ncnc3ccc(-c4cnc(Cl)c(NS(=O)(=O)c5c(F)cccc5F)c4)cc23)CC1 [Example 85, N-(2-chloro-5-(4-(4-(2-fluoroacryloyl)piperazin-1-yl)quinazolin-6-yl)pyridin-3-yl)-2,6-difluorobenzenesulfonamide] | – | –
3 | 414 nM | 576 nM | COc1ccc(-c2ccc3ncnc(N4CCN(C(=O)/C=C/C(C)=O)CC4)c3c2)cc1NS(=O)(=O)c1ccc(F)cc1F [Example 95, (E)-2,4-difluoro-N-(2-methoxy-5-(4-(4-(4-oxopent-2-enoyl)piperazin-1-yl)quinazolin-6-yl)phenyl)benzenesulfonamide] | – | –
4 | 0.31 nM | 271 nM | CC(=O)/C=C/C(=O)N1CC2(CCN(c3ncnc4ccc(-c5cnc(Cl)c(NS(=O)(=O)c6c(F)cccc6F)c5)cc34)C2)C1 [Example 86, (E)-N-(2-chloro-5-(4-(2-(4-oxopent-2-enoyl)-2,6-diazaspiro[3.4]octan-6-yl)quinazolin-6-yl)pyridin-3-yl)-2,6-difluorobenzenesulfonamide] | – | –
5 | 2.4 nM | 131 nM | CC(=O)/C=C/C(=O)N1CC2(CCN(c3ncnc4ccc(-c5cnc(Cl)c(NS(=O)(=O)c6c(F)cccc6F)c5)cc34)CC2)C1 [Example 87, (E)-N-(2-chloro-5-(4-(2-(4-oxopent-2-enoyl)-2,7-diazaspiro[3.5]nonan-7-yl)quinazolin-6-yl)pyridin-3-yl)-2,6-difluorobenzenesulfonamide] | – | –
6 | 21.7 nM | 278 nM | COc1ncc(-c2ccc3ncnc(N4CCN(C(=O)/C=C/C(C)=O)CC4)c3c2)cc1NS(=O)(=O)Nc1ccc(F)cc1F [Example 128, N-(2,4-difluorophenyl)[(2-methoxy-5-(4-(4-[(2E)-4-oxopent-2-enoyl]piperazin-1-yl)quinazolin-6-yl)pyridin-3-yl)amino]sulfonamide] | – | –
7 | – | 190 nM | COc1ncc(-c2ccc3ncnc(N4CCC5(CC4)CN(C(=O)/C=C/C(C)=O)C5)c3c2)cc1NS(=O)(=O)c1c(F)cncc1F [Example 163, (E)-3,5-difluoro-N-(2-methoxy-5-(4-(2-(4-oxopent-2-enoyl)-2,7-diazaspiro[3.5]nonan-7-yl)quinazolin-6-yl)pyridin-3-yl)pyridine-4-sulfonamide] | 0.25 nM | –
8 | – | 128 nM | COc1ncc(-c2ccc3ncnc(N4CC5CN(C(=O)/C=C/C(C)=O)CC5C4)c3c2)cc1NS(=O)(=O)c1ccc(F)cc1F (stereo not drawn) [Example 157, (E)-2,4-difluoro-N-(2-methoxy-5-(4-(5-(4-oxopent-2-enoyl)hexahydropyrrolo[3,4-c]pyrrol-2(1H)-yl)quinazolin-6-yl)pyridin-3-yl)benzenesulfonamide] | 1.3 nM | –
9 | – | 7.3 nM | C=C(F)C(=O)N1CC2(CCN(c3ncnc4ccc(-c5cnc(OC)c(NS(=O)(=O)c6c(F)cc(F)cc6F)c5)cc34)CC2)C1 [Example 140, 2,4,6-trifluoro-N-(5-(4-(2-(2-fluoroacryloyl)-2,7-diazaspiro[3.5]nonan-7-yl)quinazoline-6-yl)-2-methoxypyridin-3-yl)benzenesulfonamide] | 0.43 nM | –

Continued, compound first:

Row | SMILES | IC50 (PI3Kα; Table 2) | IC50 [1, 2] | IC50 (PI3Kα; Table 4) | further results
10 | CCOc1c([C@H](C)n2nc(C)c3c(N)ncnc32)cc(Cl)c(F)c1[C@@H]1CNC(=O)C1 [Parsaclisib, reference compound] | – | – | – | IC50 (PI3Kδ; Table 2): 8 nM; IC50 (PI3Kδ; Table 3): 6 nM; IC50 (PI3Kδ; Table 4): 4 nM
11 | CC(=O)/C=C/C(=O)N1CCN(c2ncnc3ccc(-c4cnc(O)c(NS(=O)(=O)c5ccc(F)cc5F)c4)cc23)CC1 [Example 129, (E)-2,4-difluoro-N-(2-hydroxy-5-(4-(4-(4-oxopent-2-enoyl)piperazin-1-yl)quinazolin-6-yl)pyridin-3-yl)benzenesulfonamide] | – | – | – | IC50 (PI3Kδ; Table 2): 142 nM
12 | COc1ncc(-c2ccc3ncnc(N4CCN(C(=O)C5=CC(=O)CCC5)CC4)c3c2)cc1NS(=O)(=O)c1c(F)cccc1F [Example 54, 2,6-difluoro-N-(2-methoxy-5-(4-(4-(3-oxocyclohex-1-ene-1-carbonyl)piperazin-1-yl)quinazolin-6-yl)pyridin-3-yl) benzenesulfonamide] | 2.5 nM | 10.4 nM | – | –
13 | COc1ncc(-c2ccc3ncnc(N4CCC5(CN(C(=O)/C=C/n6ccnn6)C5)C4)c3c2)cc1NS(=O)(=O)c1ccc(F)cc1F [Example 61, (E)-N-(5-(4-(2-(3-(1H-1,2,3-triazol-1-yl)acryloyl)-2,6-diazaspiro [3.4]octan-6-yl)quinazolin-6-yl)-2-methoxy-pyridin-3-yl)-2,4-difluoro-benzene-sulfonamide] | 5.2 nM | 292 nM | – | –
14 | C=C(F)C(=O)N1C2CCC1CN(c1ncnc3ccc(-c4cnc(OC)c(NS(=O)(=O)c5ccc(F)cc5F)c4)cc13)C2 [Example 146, 2,4-difluoro-N-(5-(4-(8-(2-fluoroacryloyl)-3,8-diazabicyclo[3.2.1]octan-3-yl)quinazolin-6-yl)-2-methoxypyridin-3-yl)benzenesulfonamide] | – | 82.1 nM | 2.1 nM | –
15 | COc1ncc(-c2ccc3ncnc(N4CCN(C(=O)/C(F)=C/C(C)=O)CC4)c3c2)cc1NS(=O)(=O)c1ccc(F)cc1F [Example 77, (Z)-2,4-difluoro-N-(5-(4-(4-(2-fluoro-4-oxopent-2-enoyl)piperazin-1-yl)quinazolin-6-yl)-2-methoxypyridin-3-yl)benzenesulfonamide] | 3.9 nM | – | – | IC50 ([1]; read-out: NCI-H358 (IC50, nM)): 221 nM
16 | COc1ncc(-c2nc(N3CCOCC3)nc3c(CN4CCC(C(C)(C)O)CC4)cc(F)cc23)cc1NS(C)(=O)=O [Linperlisib, reference compound] | – | – | – | IC50 (PI3Kδ; Table 1): 18 nM
17 | C=C(F)C(=O)N1C2CCC1CN(c1ncnc3ccc(-c4cnc(OC)c(NS(=O)(=O)c5c(F)cc(F)cc5F)c4)cc13)C2 [Example 156, 2,4,6-trifluoro-N-(5-(4-(8-(2-fluoroacryloyl)-3,8-diazabicyclo[3.2.1]octan-3-yl)quinazolin-6-yl)-2-methoxypyridin-3-yl)benzenesulfonamide] | – | 29.7 nM | 0.5 nM | –
18 | COC(=O)/C=C/C(=O)N1CCN(c2ncnc3ccc(-c4cnc(OC)c(NS(=O)(=O)c5ccc(F)cc5F)c4)cc23)CC1 [Example 67, methyl (E)-4-(4-(6-(5-((2,4-difluorophenyl)sulfonamido)-6-methoxy-pyridin-3-yl)quinazolin-4-yl)piperazin-1-yl)-4-oxobut-2-enoate] | 9.8 nM | 24.2 nM | – | –
19 | COc1ncc(-c2ccc3ncnc(N4CC5CCC(C4)N5C(=O)/C=C/C(C)=O)c3c2)cc1NS(=O)(=O)c1ccc(F)cc1 [Example 149, 4-fluoro-N-(2-methoxy-5-(4-(8-((E)-4-oxopent-2-enoyl)-3,8-diazabicyclo[3.2.1]octan-3-yl)quinazolin-6-yl)pyridin-3-yl)benzenesulfonamide] | – | 90.7 nM | 3.3 nM | –
20 | COc1ncc(-c2ccc3ncnc(N4CCN(C(=O)/C=C/CN(C)C)CC4)c3c2)cc1NS(=O)(=O)c1ccc(F)cc1F [Example 11, (E)-N-(5-(4-(4-(4-(dimethylamino)but-2-enoyl)piperazin-1-yl)quinazolin-6-yl)-2-methoxypyridin-3-yl)-2,4-difluorobenzenesulfonamide] | – | 102 nM | – | IC50 (PI3Kα; Table 1): 0.64 nM
